# Data taken from patent publication US11382918B2, “Methods for treating Huntington's Disease” (PTC Therapeutics, Inc., priority 2017, dated 2022).
# Where a name gives a salt, the structure may show the parent alone.
# Tested on: Endogenous Huntingtin Protein (HTT)
# Experiment: Endogenous Huntingtin Protein Assay (ELISA-based MSD electrochemiluminescence)
# Assay type: cell-based
# Details: Table 1
# In short: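 MSD electrochemiluminescence sandwich ELISA for endogenous HTT: sample lysates captured overnight at 4 °C on MW1 (expanded polyglutamine) or MAB2166 antibody. Detection used rabbit monoclonal #5656S, then goat anti-rabbit SULFO-TAG antibody, each 1 h at room temperature.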
row,IC50 [nM],SMILES
1,500 to 1000,"Cc1cc(N2CCNCC2)cn2c(=O)cc(-c3ccc4nn(C)cc4c3)nc12 [compound 754, 9-methyl-2-(2-methyl-2H-indazol-5-yl)-7-(piperazin-1-yl)-4H-pyrido[1,2-a]pyrimidin-4-one]"
2,1000 to 3000,"Cc1cc(N2CCN[C@H](C)C2)cn2c(=O)cc(-c3ccc4nn(C)cc4c3)nc12 [compound 755, 9-methyl-2-(2-methyl-2H-indazol-5-yl)-7-[(3R)-3-methylpiperazin-1-yl]-4H-pyrido[1,2-a]pyrimidin-4-one]"
3,100 to 500,"Cc1cc(N2CCN[C@@H](C)C2)cn2c(=O)cc(-c3ccc4nn(C)cc4c3)nc12 [compound 756, 9-methyl-2-(2-methyl-2H-indazol-5-yl)-7-[(3S)-3-methylpiperazin-1-yl]-4H-pyrido[1,2-a]pyrimidin-4-one]"
4,500 to 1000,"CCCc1nc(C)cn2nc(-c3cc(=O)n4cc(C5CCNCC5)ccc4n3)cc12 [compound 766, 2-(6-methyl-4-propylpyrazolo[1,5-a]pyrazin-2-yl)-7-(piperidin-4-yl)-4H-pyrido[1,2-a]pyrimidin-4-one]"
5,1000 to 3000,"Cc1cc(-c2cc(=O)n3cc(N4CCN(C)CC4)ccc3n2)cc2cn(C)nc12 [compound 768, 2-(2,7-dimethyl-2H-indazol-5-yl)-7-(4-methylpiperazin-1-yl)-4H-pyrido[1,2-a]pyrimidin-4-one]"
6,3000 to 33000,"Cc1cn2nc(-c3cc(=O)n4cc(N5CC[C@@H](CN(C)C)C5)ccc4n3)cc2c(C)n1 [compound 770, 7-{(3S)-3-[(dimethylamino)methyl]pyrrolidin-1-yl}-2-(4,6-dimethylpyrazolo[1,5-a]pyrazin-2-yl)-4H-pyrido[1,2-a]pyrimidin-4-one]"
7,500 to 1000,"CCc1nc(C)cn2nc(-c3cc(=O)n4cc(C5CCNCC5)cc(C)c4n3)cc12 [compound 771, 2-(4-ethyl-6-methylpyrazolo[1,5-a]pyrazin-2-yl)-9-methyl-7-(piperidin-4-yl)-4H-pyrido[1,2-a]pyrimidin-4-one]"
8,3000 to 33000,"CCc1nc(C)cn2nc(-c3cc(=O)n4cc(C5CCN(C)CC5)cc(C)c4n3)cc12 [compound 774, 2-(4-ethyl-6-methylpyrazolo[1,5-a]pyrazin-2-yl)-9-methyl-7-(1-methylpiperidin-4-yl)-4H-pyrido[1,2-a]pyrimidin-4-one]"
9,3000 to 33000,"Cc1cc(-c2cc(=O)n3cc(N4CCNCC4)ccc3n2)cc2cnn(C)c12 [compound 776, 2-(1,7-dimethyl-1H-indazol-5-yl)-7-(piperazin-1-yl)-4H-pyrido[1,2-a]pyrimidin-4-one]"
10,3000 to 33000,"Cc1cc(-c2cc(=O)n3cc(N4CCN[C@@H](C)C4)ccc3n2)cc2cnn(C)c12 [compound 777, 2-(1,7-dimethyl-1H-indazol-5-yl)-7-[(3S)-3-methylpiperazin-1-yl]-4H-pyrido[1,2-a]pyrimidin-4-one]"
11,1000 to 3000,"Cc1cn2nc(-c3cc(=O)n4cc(N5CC(CN(C)C)C5)ccc4n3)cc2c(C)n1 [compound 780, 7-{3-[(dimethylamino)methyl]azetidin-1-yl}-2-(4,6-dimethylpyrazolo[1,5-a]pyrazin-2-yl)-4H-pyrido[1,2-a]pyrimidin-4-one]"
12,3000 to 33000,"CCc1nc(C)cn2nc(-c3cc(=O)n4cc(N5CCN[C@@H](C)C5)cc(C)c4n3)cc12 [compound 787, 2-(4-ethyl-6-methylpyrazolo[1,5-a]pyrazin-2-yl)-9-methyl-7-[(3S)-3-methylpiperazin-1-yl]-4H-pyrido[1,2-a]pyrimidin-4-one]"
13,1000 to 3000,"CCc1nc(C)cn2nc(-c3cc(=O)n4cc(C5CCN(CCO)CC5)cc(C)c4n3)cc12 [compound 793, 2-(4-ethyl-6-methylpyrazolo[1,5-a]pyrazin-2-yl)-7-[1-(2-hydroxyethyl)piperidin-4-yl]-9-methyl-4H-pyrido[1,2-a]pyrimidin-4-one]"
14,< 100,"Cc1nc(C2CCNCC2)cn2c(=O)cc(-c3ccc4nn(C)cc4c3)nc12 [compound 796, 9-methyl-2-(2-methyl-2H-indazol-5-yl)-7-(piperidin-4-yl)-4H-pyrazino[1,2-a]pyrimidin-4-one]"
15,3000 to 33000,"Cc1ccc2nc(-c3cc(=O)n4cc(N5CCN(C)CC5)ccc4n3)cn2c1 [compound 836, 2-(6-methylimidazo[1,2-a]pyridin-2-yl)-7-(4-methylpiperazin-1-yl)-4H-pyrido[1,2-a]pyrimidin-4-one]"
16,3000 to 33000,"Cc1cc(=O)n2cc(-c3cc(=O)n4cc(N5CCNCC5)ccc4n3)ccc2n1 [compound 837, 2′-methyl-7-(piperazin-1-yl)-4H,4′H-2,7′-bipyrido[1,2-a]pyrimidine-4,4′-dione]"
17,3000 to 33000,"O=c1cc(-c2ccc(OC(F)F)c(F)c2)nc2ccc(N3CCNCC3)cn12 [compound 838, 2-[4-(difluoromethoxy)-3-fluorophenyl]-7-(piperazin-1-yl)-4H-pyrido[1,2-a]pyrimidin-4-one]"
18,3000 to 33000,"O=c1cc(-c2cnc(O)c(F)c2)nc2ccc(N3CCNCC3)cn12 [compound 839, 2-(5-fluoro-6-hydroxypyridin-3-yl)-7-(piperazin-1-yl)-4H-pyrido[1,2-a]pyrimidin-4-one]"
19,3000 to 33000,"Cc1nc(O)c2cc(-c3cc(=O)n4cc(N5CCNCC5)ccc4n3)ccc2n1 [compound 840, 2-(4-hydroxy-2-methylquinazolin-6-yl)-7-(piperazin-1-yl)-4H-pyrido[1,2-a]pyrimidin-4-one]"
20,3000 to 33000,"CN1CCC(c2ccc3nc(-c4ccc(N(C)C)nc4)cc(=O)n3c2)CC1 [compound 841, 2-[6-(dimethylamino)pyridin-3-yl]-7-(1-methylpiperidin-4-yl)-4H-pyrido[1,2-a]pyrimidin-4-one]"
21,3000 to 33000,"Cc1cn2nc(-c3cc(=O)n4cc(N5CCN(C)CC5)ccc4n3)cc2c(N(C)C)n1 [compound 843, 2-[4-(dimethylamino)-6-methylpyrazolo[1,5-a]pyrazin-2-yl]-7-(4-methylpiperazin-1-yl)-4H-pyrido[1,2-a]pyrimidin-4-one]"
22,3000 to 33000,"Cc1cn2nc(-c3cc(=O)n4cc(N5CCNC(C(F)(F)F)C5)ccc4n3)cc2c(C)n1 (stereo not shown) [compound 844, 2-(4,6-dimethylpyrazolo[1,5-a]pyrazin-2-yl)-7-[3-(trifluoromethyl)piperazin-1-yl]-4H-pyrido[1,2-a]pyrimidin-4-one]"
23,3000 to 33000,"CCN1CCN(c2ccc3nc(-c4cc(C)c5c(cnn5C)c4)cc(=O)n3c2)CC1 [compound 845, 2-(1,7-dimethyl-1H-indazol-5-yl)-7-(4-ethylpiperazin-1-yl)-4H-pyrido[1,2-a]pyrimidin-4-one]"
24,3000 to 33000,"Cc1cc(-c2cc(=O)n3cc(N4CCN(C)CC4)ccc3n2)cc2cnn(C)c12 [compound 846, 2-(1,7-dimethyl-1H-indazol-5-yl)-7-(4-methylpiperazin-1-yl)-4H-pyrido[1,2-a]pyrimidin-4-one]"
25,3000 to 33000,"COc1cc(O)ccc1-c1cc(=O)n2cc(C3=CCN(C(=O)OC(C)(C)C)CC3)ccc2n1 [compound 847, tert-butyl 4-[2-(4-hydroxy-2-methoxyphenyl)-4-oxo-4H-pyrido[1,2-a]pyrimidin-7-yl]-3,6-dihydropyridine-1(2H)-carboxylate]"
26,3000 to 33000,"COc1cc(OS(=O)(=O)C(F)(F)F)ccc1-c1cc(=O)n2cc(C3=CCN(C(=O)OC(C)(C)C)CC3)ccc2n1 [compound 848, tert-butyl 4-[2-(2-methoxy-4-{[(trifluoromethyl)sulfonyl]oxy}phenyl)-4-oxo-4H-pyrido[1,2-a]pyrimidin-7-yl]-3,6-dihydropyridine-1(2H)-carboxylate]"

row,SMILES,IC50 [nM]
1,"CCc1nc(C)cn2nc(-c3cc(=O)n4cc(C5=CCNCC5)ccc4n3)cc12 [compound 763, 2-(4-ethyl-6-methylpyrazolo[1,5-a]pyrazin-2-yl)-7-(1,2,3,6-tetrahydropyridin-4-yl)-4H-pyrido[1,2-a]pyrimidin-4-one]",100 to 500
2,"CCc1nc(C)cn2nc(-c3cc(=O)n4cc(C5=CCNCC5)cc(C)c4n3)cc12 [compound 773, 2-(4-ethyl-6-methylpyrazolo[1,5-a]pyrazin-2-yl)-9-methyl-7-(1,2,3,6-tetrahydropyridin-4-yl)-4H-pyrido[1,2-a]pyrimidin-4-one]",3000 to 33000
3,"Cc1nc(C2=CCNCC2)cn2c(=O)cc(-c3ccc4nn(C)cc4c3)nc12 [compound 791, 9-methyl-2-(2-methyl-2H-indazol-5-yl)-7-(1,2,3,6-tetrahydropyridin-4-yl)-4H-pyrazino[1,2-a]pyrimidin-4-one]",< 100
4,"CCN1CC=C(c2cn3c(=O)cc(-c4ccc5nc(C)cn5n4)nc3cn2)CC1 [compound 842, 7-(1-ethyl-1,2,3,6-tetrahydropyridin-4-yl)-2-(2-methylimidazo[1,2-b]pyridazin-6-yl)-4H-pyrazino[1,2-a]pyrimidin-4-one]",3000 to 33000
5,"COc1cc(-c2ccnc(O)c2)ccc1-c1cc(=O)n2cc(C3=CCNCC3)ccc2n1 [compound 849, 2-[4-(2-hydroxypyridin-4-yl)-2-methoxyphenyl]-7-(1,2,3,6-tetrahydropyridin-4-yl)-4H-pyrido[1,2-a]pyrimidin-4-one hydrochloride (1:1)]",3000 to 33000
6,"O=c1cc(-c2ccc(-c3ccnc(O)c3)cc2O)nc2ccc(C3=CCNCC3)cn12 [compound 850, 2-[2-hydroxy-4-(2-hydroxypyridin-4-yl)phenyl]-7-(1,2,3,6-tetrahydropyridin-4-yl)-4H-pyrido[1,2-a]pyrimidin-4-one trifluoroacetate (1:1)]",3000 to 33000
7,"CCc1nc(C)cn2nc(-c3cc(=O)n4cc(N(C)C5CC(C)(C)NC(C)(C)C5)cc(C)c4n3)cc12 [compound 851, 2-(4-ethyl-6-methylpyrazolo[1,5-a]pyrazin-2-yl)-9-methyl-7-[methyl(2,2,6,6-tetramethylpiperidin-4-yl)amino]-4H-pyrido[1,2-a]pyrimidin-4-one]",3000 to 33000
8,"Cc1cn2nc(-c3cc(=O)n4cc(N(C)C5CC(C)(C)NC(C)(C)C5)cc(C)c4n3)cc2c(C)n1 [compound 852, 2-(4,6-dimethylpyrazolo[1,5-a]pyrazin-2-yl)-9-methyl-7-[methyl(2,2,6,6-tetramethylpiperidin-4-yl)amino]-4H-pyrido[1,2-a]pyrimidin-4-one]",3000 to 33000
